Reference: publication PMC6792352, “Limited Chemical Structural Diversity Found to Modulate Thyroid Hormone Receptor in the Tox21 Chemical Library” (Environmental Health Perspectives, 2019)
Counter-ions that a name gives are not always drawn.

assay: in vitro; conditions: rat, gh3-tre-luc cells, AC50 (uM) modified / 1000

SMILES	CC50 at 24 h
CNC[C@H](O)[C@@H](O)[C@H](O)[C@H](O)CO [Meglumine]	> 90 µM
CCCCCC(C=O)=Cc1ccccc1 [Pentylcinnamaldehyde]	> 90 µM
CO[C@H]1/C=C/O[C@@]2(C)Oc3c(C)c(O)c4c(O)c(c5c(nc6cc(C)ccn65)c4c3C2=O)NC(=O)/C(C)=C\C=C\[C@H](C)[C@H](O)[C@@H](C)[C@@H](O)[C@@H](C)[C@H](OC(C)=O)[C@@H]1C [Rifaximin]	> 50 µM
BrCC(Br)(Br)Br [1,1,1,2-Tetrabromoethane]	> 90 µM
COc1ccc(OC)c(CC(C)N)c1 (centres unmarked) [2,5-Dimethoxyamphetamine hydrochloride]	> 100 µM
N=C(N)c1ccc2cc(OC(=O)c3ccc(N=C(N)N)cc3)ccc2c1 [Nafamostat mesylate]	> 50 µM
Cc1ccc(C)o1 [2,5-Dimethylfuran]	> 90 µM
CC(C)c1cccc(C(C)C)c1NC(=O)NS(=O)(=O)c1cc(C(C)(C)O)co1 [CP-465394]	> 90 µM
CN1C(=O)C[C@@H](C(=O)N[C@@H](Cc2c[nH]cn2)C(=O)N2CCC[C@H]2C(N)=O)NC1=O [Taltirelin]	> 50 µM
CCCCC/C=C\CCC=O [(4Z)-4-Decenal]	> 90 µM
Sc1nnc(S)s1 [2,5-Dimercapto-1,3,4-thiadiazole]	> 90 µM
Cc1nnc2n1-c1sc(CCC(=O)N3CCOCC3)cc1C(c1ccccc1Cl)=NC2 [Apafant]	> 50 µM
O=C(O)c1cc(O)c(O)c(O)c1 [Gallic acid]	90.1 µM
COC(=O)c1ccc(O)cc1 [Methylparaben]	> 90 µM
N#CCCN(CCO)CCO [3-[Bis(2-hydroxyethyl)amino]propanenitrile]	> 90 µM
CCCNC(C)(C)COC(=O)c1ccccc1 [Meprylcaine hydrochloride]	> 50 µM
O=C1NC(=O)c2cc([N+](=O)[O-])ccc21 [4-Nitrophthalimide]	> 90 µM
c1ccc(/N=N/c2ccccc2)cc1 [Azobenzene]	> 90 µM
CCCCCCOC(C)=O [Hexyl acetate]	> 90 µM
C1CCC2=NCCCN2CC1 [1,8-Diazabicyclo[5.4.0]undec-7-ene]	> 90 µM
O=CC1CC=CCC1 (centres unmarked) [3-Cyclohexene-1-carboxaldehyde]	> 90 µM
CCCCCCCCCOS(=O)(=O)O [Sulfuric acid, monononyl ester, sodium salt]	> 90 µM
CCCC(=O)O[C@]1(C(=O)CO)CC[C@H]2[C@@H]3CCC4=CC(=O)CC[C@]4(C)[C@H]3[C@@H](O)C[C@@]21C [Hydrocortisone 17-butyrate]	> 50 µM
O=C(O)CNc1ccccc1 [Potassium anilinoacetate]	> 90 µM
CC(C)CCCO [4-Methylpentan-1-ol]	> 90 µM

SMILES	CC50 at 24 h
CCCCCCCCCCCCSCCOCCOCCOCCOCCOCCOCCOCCOCCOCCO [Laureth 10s]	> 50 µM
CCCCCCCCCCCCCCCCCCOS(=O)(=O)O [Octadecyl sulfate sodium salt]	53.1 µM
C1CCNCC1 [Piperidine]	> 90 µM
CCN(CC)CC1CCCCN1CC(=O)N1c2ccccc2C(=O)Nc2cccnc21 (centres unmarked) [AF-DX 116]	> 50 µM
c1coc(CNc2ncnc3[nH]cnc23)c1 [Kinetin]	> 90 µM
Cc1nc(-c2ccc3c(c2)CCN(CCC2CCC(NC(=O)/C=C/c4ccc(F)cc4)CC2)CC3)no1 (centres unmarked) [SB413217A]	8.41 µM
CCCCNC1CC(C)(C)NC(C)(C)C1 [N-Butyl-2,2,6,6-tetramethylpiperidin-4-amine]	> 90 µM
O=[N+]([O-])c1cccc2ccccc12 [1-Nitronaphthalene]	> 90 µM
CCCCCCCCCCCCCCCCI [1-iodohexadecane]	> 20 µM
C=COCC1CCC(CO)CC1 (centres unmarked) [{4-[(Ethenyloxy)methyl]cyclohexyl}methanol]	> 90 µM
Cc1ccc(C(C)C)c(O)c1 [Thymol]	> 90 µM
Oc1ccc2c(c1)OCO2 [Sesamol]	> 90 µM
Cc1ccc(N(C)C)cc1 [N,N,4-Trimethylaniline]	> 90 µM
Cc1cc(=O)n(-c2ccccc2)n1C [Phenazone]	> 50 µM
CC1(C)[C@H](C(=O)O[C@H](C#N)c2cccc(Oc3ccccc3)c2)[C@@H]1C=C(Br)Br [Deltamethrin]	> 100 µM
CCCCCCC [Heptane]	> 100 µM
CN(C)c1ccc(O)c2c1C[C@H]1C[C@H]3[C@H](N(C)C)C(O)=C(C(N)=O)C(=O)[C@@]3(O)C(O)=C1C2=O [Minocycline hydrochloride]	> 90 µM
COc1ccccc1OCC1CNC(=O)O1 (centres unmarked) [Mephenoxalone]	> 50 µM
CC/C(=C(/CC)c1ccc(OP(=O)(O)O)cc1)c1ccc(OP(=O)(O)O)cc1 [Diethylstilbestrol diphosphate]	> 50 µM
CC(C)CC(C)(N)C#N (centres unmarked) [2-Amino-2,4-dimethylpentanenitrile]	> 90 µM
CC(C)OC(=O)C(C(=O)OC(C)C)=C1SC=CS1 [Malotilate]	> 50 µM
CCCc1ccc(O)c(OC)c1 [2-Methoxy-4-propylphenol]	> 90 µM
CCOc1cc(-c2nccc3cc(OC)c(OC)cc23)cc(OCC)c1OCC [Octaverine]	28.2 µM
Oc1c(Cl)cc(Cl)c2cccnc12 [Chloroxine]	5.91 µM
CCc1cc(Cc2cc(CC)c(N)c(CC)c2)cc(CC)c1N [4,4'-Methylenebis(2,6-diethylaniline)]	61.9 µM

SMILES	CC50 at 24 h
CN(C)CC[C@@H](c1ccc(Cl)cc1)c1ccccn1 [Dexchlorpheniramine hydrochloride]	24.8 µM
Brc1c2ccccc2c(Br)c2ccccc12 [9,10-Dibromoanthracene]	> 5 µM
C/C=C(\C)C=O [2-Methyl-2-butenal]	> 90 µM
Cc1ccc([N+](=O)[O-])cc1N [2-Methyl-5-nitroaniline]	> 90 µM
OCC(CBr)(CBr)CBr [3-Bromo-2,2-bis(bromomethyl)propanol]	> 90 µM
O=C(O)c1c(Cl)c(Cl)c(Cl)c(Cl)c1-c1c2cc(I)c(=O)c(I)c-2oc2c(I)c(O)c(I)cc12 [Rose bengal sodium]	20.9 µM
N=c1c[n+](N2CCOCC2)[n-]o1 [3-Morpholinosydnonimine hydrochloride]	> 50 µM
CCCCCCCCCC(=O)N(C)C [N,N-Dimethyldecanamide]	> 90 µM
CN1CCN2c3ncccc3Cc3ccccc3C2C1 (centres unmarked) [Mirtazapine]	> 50 µM
O=C1CCN(c2ccccc2)N1 [3-Pyrazolidinone,1-phenyl-]	> 90 µM
Cc1occc1C(=O)Nc1ccc(C(=O)N2CCC(F)(F)/C(=C\C(=O)N3CCC(N4CCCCC4)CC3)c3ccccc32)cc1 [YM218]	11.8 µM
CCNS(=O)(=O)c1ccc(C)cc1 [N-Ethyl-4-methylbenzenesulfonamide]	> 90 µM
CCCCOCC(C)OCC(C)O (centres unmarked) [1-(2-Butoxy-1-methylethoxy)propan-2-ol]	> 90 µM
Cn1cc(NC(=O)c2cc(NC(=O)c3cc(NC=O)cn3C)cn2C)cc1C(=O)NCCC(=N)N [Stallimycin]	> 50 µM
CCCCCCCCCCCCCCCC(=O)O[C@@H]1[C@@H](O)[C@@H](O)[C@@H]([C@H](NC(=O)[C@@H]2C[C@@H](CCC)CN2C)[C@H](C)Cl)O[C@@H]1SC [Clindamycin palmitate hydrochloride]	> 50 µM
Cc1ccc(S(N)(=O)=O)cc1 [4-Toluenesulfonamide]	> 90 µM
OCCSc1ccccc1 [2-Phenylmercaptoethanol]	> 90 µM
CCC(C)(C)c1ccc(O)cc1 [4-(2-Methylbutan-2-yl)phenol]	> 90 µM
COc1ccc(Cl)cc1C [4-Chloro-2-methylanisole]	> 100 µM
Nc1nnnn1-c1ccccc1 [Fenamol]	> 50 µM
CCCC(C)=O [2-Pentanone]	> 90 µM
CCCCCCCCOc1ccc(C(=O)c2ccccc2)c(O)c1 [Octabenzone]	> 90 µM
O=C(O)C(Cl)Cl [Dichloroacetic acid]	> 90 µM

same assay, conditions: rat, gh3-tre-luc cells, AC50 (uM) modified / 1000, Tox21_110001=Tox21_110809; viability, 1 nM T3 present, 24 h

SMILES	CC50 at 24 h
CC[C@@H](CO)NC(=O)[C@@H]1C=C2c3cccc4[nH]cc(c34)C[C@H]2N(C)C1 [Methergine]	> 50 µM

same assay, conditions: rat, gh3-tre-luc cells, AC50 (uM) modified / 1000, Tox21_110001=Tox21_111052; viability, 1 nM T3 present, 24 h

SMILES	CC50 at 24 h
COP(=O)(OC)OC=C(Cl)Cl [Dichlorvos]	> 50 µM

same assay, conditions: rat, gh3-tre-luc cells, AC50 (uM) modified / 1000, Tox21_110001=Tox21_111324; viability, 1 nM T3 present, 24 h

SMILES	CC50 at 24 h
NCCc1cc(O)c(O)cc1O [Oxidopamine hydrochloride]	45.2 µM

same assay, conditions: rat, gh3-tre-luc cells, AC50 (uM) modified / 1000, Tox21_110001=Tox21_111336; viability, 1 nM T3 present, 24 h

SMILES	CC50 at 24 h
CC(=O)Nc1cc([As](=O)(O)O)ccc1O [Acetarsol]	> 50 µM

same assay, conditions: rat, gh3-tre-luc cells, AC50 (uM) modified / 1000, Tox21_110001=Tox21_111804; viability, 1 nM T3 present, 24 h

SMILES	CC50 at 24 h
CC(C)(N)Cc1ccc(Cl)cc1 [Chlorphentermine hydrochloride]	> 50 µM

same assay, conditions: rat, gh3-tre-luc cells, AC50 (uM) modified / 1000, Tox21_110001=Tox21_112821; viability, 1 nM T3 present, 24 h

SMILES	CC50 at 24 h
CCCSc1cc(OC)c(CCN)cc1OC [2-[2,5-dimethoxy-4-(propylsulfanyl)phenyl]ethanamine hydrochloride]	34.6 µM

same assay, conditions: rat, gh3-tre-luc cells, AC50 (uM) modified / 1000, Tox21_110001=Tox21_201617; viability, 1 nM T3 present, 24 h

SMILES	CC50 at 24 h
COP(=O)(OC)OC=C(Cl)Cl [Dichlorvos]	> 90 µM

same assay, conditions: rat, gh3-tre-luc cells, AC50 (uM) modified / 1000, Tox21_110001=Tox21_202365; viability, 1 nM T3 present, 24 h

SMILES	CC50 at 24 h
O=S1OCC2C(CO1)C1(Cl)C(Cl)=C(Cl)C2(Cl)C1(Cl)Cl (centres unmarked) [Endosulfan]	55.9 µM

same assay, conditions: rat, gh3-tre-luc cells, AC50 (uM) modified / 1000, Tox21_110001=Tox21_300657; viability, 1 nM T3 present, 24 h

SMILES	CC50 at 24 h
O=S1OCC2C(CO1)C1(Cl)C(Cl)=C(Cl)C2(Cl)C1(Cl)Cl (centres unmarked) [Endosulfan]	37.5 µM

same assay, conditions: rat, gh3-tre-luc cells, AC50 (uM) modified / 1000, Tox21_110001=Tox21_400075; viability, 1 nM T3 present, 24 h

SMILES	CC50 at 24 h
COc1ccc(C(c2ccc(OC)cc2)C(Cl)(Cl)Cl)cc1 [Methoxychlor]	76.1 µM
